Assays:
[1] = test system: platelet aggregation induced by ADP; assay: kinetic study of platelet aggregation induced by ADP (Born's nephelometric method, Bryston aggregometer), intraperitoneal; type: in vivo; conditions: rats
Description: A further experiment was carried out, relating to the kinetic study of the compounds of the present invention.
The blood sample is taken 10 minutes and 60 minutes after this administration and is centrifuged to obtain a plasma enriched in platelets.
The platelet aggregation in the plasma, induced by ADP is measured in a Bryston aggregometer, using Born's nephelometric method.

in vivo = conditions: mouse, iv
Excerpt: This study was concerned with the acute, chronic, sub-chronic and delayed toxicities.

[2] = test system: platelet aggregation by collagen; assay: inhibiting action on platelet aggregation by collagen (COLLAGEN TEST), plasma of orally treated rats; type: in vivo, Wistar rats; conditions: Rattus norvegicus, po, 3 h, read-out: Percentage inhibition of platelet aggregation (collagen test)
Description: (§1) A sample of blood is taken from the jugular vein of Wistar rats, which have previously been treated with the compound to be tested. From this blood, which is citrate-treated and centrifuged, there is reconstituted a plasma containing 600,000±20,000 platelets per mm^3, which is employed in all the aggregation measurements.
(§2) 0.4 ml. of plasma is treated in a siliconised tube provided with a bar magnet which is also siliconised. The tube is introduced into an aggregometer connected to an apparatus with which variations in optical density can be recorded. When the light transmission has reached a stable value, 0.5 ml. of a solution containing […] of ADP (adenosine diphosphate)is introduced into the tube.
(§3) Platelet aggregation then causes an increase in light transmission, followed by a reduction in light transmission due to the subsequent disaggregation stage.
(§4) The maximum variation in optical density thus determined relative to that of a plasma free of platelets characterises the intensity of aggregation.
(§5) The measurements are carried out during the 2 hours which follow the taking of the blood sample, this sample being taken 3 hours after treatment with the derivative to be tested.
The ADP solution is replaced by a solution of collagen (extracted from cattle tendons).
(§6) Groups of 20 rats were used. Each group received a single dose of the compound to be tested, administered orally, the same compound being administered at different doses ranging from 5 mg./kg. to 100 mg./kg.
(§7) The results obtained are given in the following Tables II and III, which show the percentage inhibition of platelet aggregation obtained relative to the control experiment, 3 hours after treatment with the compound to be tested.

[3] = test system: platelet aggregation by ADP; assay: inhibiting action on platelet aggregation by ADP (ADP TEST), plasma of orally treated rats; type: in vivo, Wistar rats; conditions: Rattus norvegicus, po, 3 h, read-out: Percentage inhibition of platelet aggregation (ADP test)
Description: as §1, §2, §3, §4, §5, §6, §7

experimental thrombosis = assay: anti-thrombosis activity, experimental thrombosis caused by extracorporal circulation (Umetsu and Sonoi); type: in vivo, rats; conditions: control (5% gum arabic) 30.41
Description: This activity was studied by the experimental thrombosis method caused by extracorporal circulation, described by Umetsu and Sonoi (Thrombos. Haemost., 39, […]).
The left jugular vein and the right external carotid are exposed in rats anaesthetised by an intraperitoneal injection of pentobarbital. A shunt is provided which consists of a central catheter and two lateral catheters. A natural white silk thread is introduced into the central part and the circulation is restarted for 20 minutes. After stopping the circulation by clamping, the thread is gently withdrawn and weighed immediately.
Treatment was carried out for 48 hours, 24 hours and 2 hours before the start of the blood circulation in shunt.
The test compounds were administered orally to different groups of animals in the form of a suspension in 10 ml. of 5% gum arabic/kg., the doses used being 12.5 mg./kg., 25 mg./kg., 50 mg./kg., 100 mg./kg. and 200 mg./kg.

For `O=C1C=C2CN(Cc3ccccc3Cl)CCC2S1` (centres unmarked) [Derivative 1, 5-(o-Chlorobenzyl)-5,6,7,7a-tetrahydro-4H-thieno-[3,2-c]pyridin-2-one], the “percentage inhibition as a function of time (platelet aggregation, ADP)” value ([1]; 10 minutes after 100 mg/kg intraperitoneal in propylene glycol) was 42%, the “percentage inhibition as a function of time (platelet aggregation, ADP)” value ([1]; 60 minutes after 100 mg/kg intraperitoneal in propylene glycol) was 97% and the LD50 at 24 h (in vivo) was 113 mg/kg. The inhibition at 5 mg/kg [2] was 16.8%, the inhibition at 12.5 mg/kg [2] was 46.8% and the inhibition at 25 mg/kg [2] was 86.7%. It also gave an inhibition at 50 mg/kg [2] of 89.6%, an inhibition at 100 mg/kg [2] of 89.8% and an inhibition at 5 mg/kg [3] of 51%. For the same molecule, the inhibition at 12.5 mg/kg [3] was 83.6%, the inhibition at 25 mg/kg [3] was 83.7% and the inhibition at 50 mg/kg [3] was 84%. The inhibition at 100 mg/kg [3] was 84.1%, the “Average weight of the thrombi” value (experimental thrombosis; 12.5 mg/kg oral, 48, 24 and 2 hours before) was 27.45 mg and the “Average weight of the thrombi” value (experimental thrombosis; 25 mg/kg oral, 48, 24 and 2 hours before) was 12.21 mg. For the same molecule, the “Average weight of the thrombi” value (experimental thrombosis; 50 mg/kg oral, 48, 24 and 2 hours before) was 6.01 mg and the “Average weight of the thrombi” value (experimental thrombosis; 100 mg/kg oral, 48, 24 and 2 hours before) was 4.76 mg.

— patent publication US4515951A, “Preparation of 5,6,7,7a-tetrahydro-4H-thieno[3,2-c]pyridin-2-one compounds” (Sanofi, priority 1980, dated 1985)
